In brackets after ≈: the same amount, converted by molar mass.
Columns and labels:
Format in all cases: cell-based
[1] = tested on: Aspergillus fumigatus (ATCC 16424); assay: In vitro antifungal activity (MIC80), Aspergillus fumigatus ATCC 16424; conditions: Aspergillus fumigatus, ATCC16424, Table 2, ATCC 16424; read-out: Minimal inhibitory concentration (MIC80)
Procedure: (§1) In vitro antifungal activities of the inventive antifungal compounds were evaluated using test strains including Candida albican (ATCC 90873, 204276, 62342, 64124, 64550, 96901, MYA-573, MYA-574, MYA-575, MYA-576, MYA-1003) and Aspergillus fumigatus (ATCC 16424). Test samples and positive control samples were prepared by dissolving the inventive compounds and comparative compounds, i.e., amphotericin B, fluconazole and itraconazole, in DMSO, respectively, and each successively diluted with medium to obtain test and positive control solutions having test compound concentrations of 0.125 μg/ml to a maximum concentration not generating turbidity. Minimal inhibitory concentration (MIC80) of each compound was determined as the lowest concentration of the test compounds required to reduce growth by 80% relative to a control strain not treated.
(§2) 1) Test strain: Candida albican ATCC 90873, 204276, 62342, 64124, 64550, 96901, MYA-573, MYA-574, MYA-575, MYA-576, MYA-1003, and Aspergillus fumigatus ATCC 16424 were commercially obtained from The American Type Culture Collection (ATCC) and subcultured in CHEMON Co. Ltd. (amphotericin B was commercially purchased from Sigma, and fluconazole and itraconazole were prepared according to methods described in British Patent No. 2,099,818; and U.S. Pat. No. 4,267,179, respectively).
(§3) 2) Medium and culture condition: Candida albican was cultured in Sabourad Dextrose Agar, YM Agar or Potato Dextrose Agar according to ATCC information at a temperature of 37° C., 35° C., 30° C. or 25° C. Aspergillus fumigatus was cultured in Malt Extract Agar or Potato Dextrose Agar at a temperature ranging from 24 to 27° C.
(§4) 3) Preparation of test samples: the inventive compounds and comparative compounds were each diluted with DMSO to obtain 1 to 2 ml of a test sample in a concentration of 100-folds of the determining maximum concentration (256 μg/ml).
(§5) The test samples were each successively diluted with RPMI 1640 to obtain test solutions having concentrations of […] in a 12×75 mm sterilized disposable culture tube. The final concentration of DMSO was adjusted to […] (v/v).
(§6) 5) Preparation of strain solution and inoculation
(§7) Candida albican strains were each subcultured in Sabourad Dextrose Agar, YM Agar or Potato Dextrose Agar medium at 35° C. for 2˜3 days. In the case of yeasts, a single colony was taken from prominent colonies and suspended in 0.85% sterile physiological saline solution and the turbidity of the suspension was adjusted to 80˜82% at 530 nm, and then diluted 50-fold with RPMI 1640 medium to 1.0×10^3˜5.0×10^3 CFU/ml. The turbidity of fungi was adjusted to 80˜82% and the suspension was diluted 50-fold to […]. Aspergillus fumigatus strains were subcultured in Malt Extract Agar for 7˜10 days, and a single colony was taken from prominent colonies and suspended in 0.85% sterile physiological saline solution and the suspension was adjusted to 0.108 at 530 nm, and then diluted 1000-fold with RPMI 1640 medium to 0.4×10^2˜5×10^4 CFU/ml. The turbidity of fungi was adjusted to 80˜82% and the suspension was diluted 50-fold to 0.4102˜0.5104 CFU/ml.
(§8) The strain solutions thus obtained were each seeded into a sterilized 96-well microplate, 0.1 ml of each test solution were added thereto, and […] of alamarblue was treated to each well (Biosource, #DAL1100). This procedure was repeated 2 times.
(§9) Minimal inhibitory concentration (MIC80) of each compound was determined as the lowest concentration of the test compounds required to reduce growth by 80% relative to a control strain not treated.
MIC80 of each of the compounds of which antifungal activities can be confirmed by Table 2 was determined using other test strains, i.e., Aspergillus fumigatus ATCC 16424 and MYA-1163, Aspergillus terreus ATCC 28301, Aspergillus flavus ATCC MYA-1004, and Aspergillus niger ATCC 9142.

[2] = tested on: Candida albican ATCC 90873; assay: In vitro antifungal activity (MIC80), Candida albican ATCC 90873; conditions: Candida, ATCC90873; Table 2, ATCC 90873; read-out: Minimal inhibitory concentration (MIC80)
In short: (§10)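 MIC80 is the lowest concentration that cuts growth by 80% compared with untreated cells, with alamarBlue as the growth read-out. Compounds were serially diluted in RPMI 1640 (0.25–256 […]; DMSO 2% v/v final) and added to 1.0×10^3–5.0×10^3 CFU/ml yeast suspensions, in duplicate runs.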

[3] = tested on: Candida albican ATCC 96901; assay: In vitro antifungal activity (MIC80), Candida albican ATCC 96901; conditions: Candida, ATCC96901; Table 2, ATCC 96901; read-out: Minimal inhibitory concentration (MIC80)
In short: as §10

[4] = tested on: Candida albican ATCC MYA-1003; assay: In vitro antifungal activity (MIC80), Candida albican ATCC MYA-1003; conditions: Candida; Table 2, MYA 1003; read-out: Minimal inhibitory concentration (MIC80)
In short: as §10

[5] = tested on: Candida albican ATCC 204276; assay: In vitro antifungal activity (MIC80), Candida albican ATCC 204276; conditions: ATCC204276, Table 2, 204276, read-out: Minimal inhibitory concentration (MIC80)
Procedure: as §1, §2, §3, §4, §5, §6, §7, §8, §9

[6] = tested on: Candida albican ATCC 62342; assay: In vitro antifungal activity (MIC80), Candida albican ATCC 62342; conditions: Candida, ATCC62342; Table 2, 62342; read-out: Minimal inhibitory concentration (MIC80)
In short: as §10

[7] = tested on: Candida albican ATCC 64124; assay: In vitro antifungal activity (MIC80), Candida albican ATCC 64124; conditions: Candida, ATCC64124; Table 2, 64124; read-out: Minimal inhibitory concentration (MIC80)
In short: as §10

[8] = tested on: Candida albican ATCC 64550; assay: In vitro antifungal activity (MIC80), Candida albican ATCC 64550; conditions: Candida, ATCC64550; Table 2, 64550; read-out: Minimal inhibitory concentration (MIC80)
In short: as §10

[9] = tested on: Candida albican ATCC MYA-573; assay: In vitro antifungal activity (MIC80), Candida albican ATCC MYA-573; conditions: Candida; Table 2, MYA 573; read-out: Minimal inhibitory concentration (MIC80)
In short: as §10

[10] = tested on: Candida albican ATCC MYA-574; assay: In vitro antifungal activity (MIC80), Candida albican ATCC MYA-574; conditions: Candida; Table 2, MYA 574; read-out: Minimal inhibitory concentration (MIC80)
In short: as §10

[11] = tested on: Candida albican ATCC MYA-575; assay: In vitro antifungal activity (MIC80), Candida albican ATCC MYA-575; conditions: Candida; Table 2, MYA 575; read-out: Minimal inhibitory concentration (MIC80)
In short: as §10

[12] = tested on: Candida albican ATCC MYA-576; assay: In vitro antifungal activity (MIC80), Candida albican ATCC MYA-576; conditions: Candida; Table 2, MYA 576; read-out: Minimal inhibitory concentration (MIC80)
In short: as §10

SMILES | MIC80 [1] [µg/mL] | MIC80 [2] [µg/mL] | MIC80 [3] [µg/mL] | MIC80 [4] [µg/mL] | MIC80 [5] [µg/mL] | MIC80 [6] [µg/mL] | MIC80 [7] [µg/mL] | MIC80 [8] [µg/mL] | MIC80 [9] [µg/mL] | MIC80 [10] [µg/mL] | MIC80 [11] [µg/mL] | MIC80 [12] [µg/mL]
C[C@@H](N1CCN(c2ccc(C#N)nc2)CC1)[C@](O)(Cn1cncn1)c1ccc(F)cc1F [Example 17, 5-(4-((2R,3R)-3-(2,4-difluorophenyl)-3-hydroxy-4-(1H-1,2,4-triazol-1-yl)butan-2-yl)piperazin-1-yl)picolinonitrile] | 8 (≈ 18.2 µM) | 0.125 (≈ 0.284 µM) | 8 (≈ 18.2 µM) | 32 (≈ 72.8 µM) | 0.125 (≈ 0.284 µM) | 2 (≈ 4.55 µM) | 16 (≈ 36.4 µM) | 1 (≈ 2.28 µM) | 0.25 (≈ 0.569 µM) | 64 (≈ 146 µM) | 64 (≈ 146 µM) | 0.125 (≈ 0.284 µM)
Cc1ccc(C(=O)c2cnc3sc(C(=O)N4CCN([C@H](C)[C@](O)(Cn5cncn5)c5ccc(F)cc5F)CC4)cn23)cc1 [Example 56, (4-((2R,3R)-3-(2,4-difluorophenyl)-3-hydroxy-4-(1H-1,2,4-triazol-1-yl)butan-2-yl)piperazin-1-yl)(5-(4-methylbenzoyl)-imidazo[2,1-b]-thiazol-2-yl)methanone] | 1 (≈ 1.65 µM) | 0.25 (≈ 0.413 µM) | 8 (≈ 13.2 µM) | > 128 | 0.25 (≈ 0.413 µM) | 0.5 (≈ 0.826 µM) | 8 (≈ 13.2 µM) | 2 (≈ 3.3 µM) | 1 (≈ 1.65 µM) | 4 (≈ 6.6 µM) | 4 (≈ 6.6 µM) | 0.125 (≈ 0.206 µM)
C[C@@H](N1CCN(c2ccc3ccccc3n2)CC1)[C@](O)(Cn1cncn1)c1ccc(F)cc1F [Example 19, (2R,3R)-2-(2,4-difluorophenyl)-3-(4-(quinolin-2-yl)piperazin-1-yl)-1-(1H-1,2,4-triazol-1-yl)butan-2-ol] | 0.125 (≈ 0.269 µM) | 0.125 (≈ 0.269 µM) | 0.5 (≈ 1.08 µM) | > 128 | 0.125 (≈ 0.269 µM) | 0.25 (≈ 0.538 µM) | 4 (≈ 8.61 µM) | 0.5 (≈ 1.08 µM) | 0.25 (≈ 0.538 µM) | > 128 | > 128 | 0.125 (≈ 0.269 µM)
COc1ccc(C(=O)c2cnc3sc(C(=O)N4CCN(C(C)C(O)(Cn5cncn5)c5ccc(F)cc5F)CC4)cn23)cc1 (stereo not drawn) [Example 57] | 0.5 (≈ 0.804 µM) | 0.125 (≈ 0.201 µM) | 8 (≈ 12.9 µM) | > 128 | 0.125 (≈ 0.201 µM) | 0.5 (≈ 0.804 µM) | 8 (≈ 12.9 µM) | 4 (≈ 6.43 µM) | 1 (≈ 1.61 µM) | 8 (≈ 12.9 µM) | 8 (≈ 12.9 µM) | 0.125 (≈ 0.201 µM)
C[C@@H](N1CCN(c2nc3ccccc3s2)CC1)[C@](O)(Cn1cncn1)c1ccc(F)cc1F [Example 2, (2R,3R)-3-(4-(benzothiazol-2-yl)piperazin-1-yl)-2-(2,4-difluorophenyl)-1-(1H-1,2,4-triazol-1-yl)butan-2-ol] | 0.5 (≈ 1.06 µM) | 0.125 (≈ 0.266 µM) | 2 (≈ 4.25 µM) | 128 (≈ 272 µM) | 0.125 (≈ 0.266 µM) | 0.5 (≈ 1.06 µM) | 4 (≈ 8.5 µM) | 1 (≈ 2.13 µM) | 0.25 (≈ 0.531 µM) | 8 (≈ 17 µM) | 8 (≈ 17 µM) | 0.125 (≈ 0.266 µM)
C[C@@H](N1CCN(c2ncccn2)CC1)[C@](O)(Cn1cncn1)c1ccc(F)cc1F [Example 18, (2R,3R)-2-(2,4-difluorophenyl)-3-(4-(pyrimidin-2-yl)piperazin-1-yl)-1-(1H-1,2,4-triazol-1-yl)butan-2-ol] | 0.125 (≈ 0.301 µM) | 0.125 (≈ 0.301 µM) | 8 (≈ 19.3 µM) | > 128 | 0.125 (≈ 0.301 µM) | 4 (≈ 9.63 µM) | 16 (≈ 38.5 µM) | 2 (≈ 4.81 µM) | 1 (≈ 2.41 µM) | > 128 | > 128 | 0.125 (≈ 0.301 µM)
C[C@@H](N1CCN(Cc2ccco2)CC1)[C@](O)(Cn1cncn1)c1ccc(F)cc1F [Example 43, (2R,3R)-2-(2,4-difluorophenyl)-3-(4-((furan-2-yl)methyl)piperazin-1-yl)-1-(1H-1,2,4-triazol-1-yl)butan-2-ol] | 64 (≈ 153 µM) | 0.125 (≈ 0.299 µM) | 64 (≈ 153 µM) | > 128 | 0.125 (≈ 0.299 µM) | 4 (≈ 9.58 µM) | 64 (≈ 153 µM) | 16 (≈ 38.3 µM) | 4 (≈ 9.58 µM) | 128 (≈ 307 µM) | 128 (≈ 307 µM) | 0.25 (≈ 0.599 µM)
C[C@@H](N1CCN(c2nc3ccccc3n2C)CC1)[C@](O)(Cn1cncn1)c1ccc(F)cc1F [Example 3, (2R,3R)-2-(2,4-difluorophenyl)-3-(4-(1-methyl-1H-benzoimidazol-2-yl)piperazin-1-yl)-1-(1H-1,2,4-triazol-1-yl)butan-2-ol] | 1 (≈ 2.14 µM) | 0.125 (≈ 0.267 µM) | 4 (≈ 8.56 µM) | > 128 | 0.125 (≈ 0.267 µM) | 8 (≈ 17.1 µM) | 16 (≈ 34.2 µM) | 2 (≈ 4.28 µM) | 4 (≈ 8.56 µM) | 16 (≈ 34.2 µM) | 16 (≈ 34.2 µM) | 0.125 (≈ 0.267 µM)
CC(N1CCN(C(=O)c2cn3c(C(=O)c4ccccc4)cnc3s2)CC1)C(O)(Cn1cncn1)c1ccc(F)cc1F [Example 55, (4-((2R,3R)-3-(2,4-difluorophenyl)-3-hydroxy-4-(1H-1,2,4-triazol-1-yl)butan-2-yl)piperazin-1-yl)(5-benzoyl-imidazo[2,1,-b]-thiazol-2-yl)methanone] | 1 (≈ 1.69 µM) | 0.125 (≈ 0.211 µM) | 8 (≈ 13.5 µM) | > 128 | 0.125 (≈ 0.211 µM) | 0.5 (≈ 0.845 µM) | 16 (≈ 27 µM) | 4 (≈ 6.76 µM) | 1 (≈ 1.69 µM) | 8 (≈ 13.5 µM) | 8 (≈ 13.5 µM) | 0.125 (≈ 0.211 µM)

Source: patent US20100144712A1 (priority 2007, published 2010)
